pIC50: −log10 of the molar value.
Legend:
[1] = biological target: full-length human PTPN2 (TC45) (1-387) protein (Homo sapiens (Human), UniProt P17706); assay: Enzymatic assay, full-length PTPN2 DiFMUP assay; format: biochemical; details: 0.5 nM PTPN2, 100 μM DiFMUP, 30 min at room temperature
Source text: Example A: Enzymatic Assay Used to Determine Potency of PTPN2 Inhibitors
Compounds were subsequently added using a Tecan D300e dispenser. […] A four-parameter curve fit was used to determine IC50 values from % inhibition data.

[2] = system: murine B16F10 melanoma cell line; assay: B16F10 IFNγ-induced cellular growth inhibition assay (xCELLigence RTCA); format: cell-based; details: Mus musculus, B16-F10, 48 h; read-out: B16 IFNγ Mediated Growth Inhibition Assay: AVG IC50
Description: Example B: B16F10 Cellular Growth Inhibition Assay
Compound activity was determined using an interferon gamma (IFNγ)-induced cellular growth inhibition assay with the murine B16F10 melanoma cell line on an Agilent xCELLigence Real-Time Cell Analysis platform (RTCA). RTCA E-Plate View 96 plates (Agilent, 300601010) were pre-equilibrated with 50 μL of assay media (DMEM+10% FBS, Gibco 10566-024, Gibco 10082-147) at 37° C., in a humidified incubator before taking an initial measurement of impedance (sweep). B16F10 cells cultured in assay media were dissociated with TrypLE Express (Gibco 12605-010) for five minutes at 37° C., diluted in 3 volumes of assay buffer, centrifuged for 5 minutes at 500×g at room temperature before diluting cells to 7,700 cells/mL in assay media, plating 130 μL/well (1,000 cells/well) in the inner 60 wells of the assay plate, and adding 150 μL of assay media to the outer wells of the plate. Cells were incubated at room temperature for 20 min to allow cells to settle before placing them in the xCELLigence reader and incubating overnight at 37° C., sweeping wells every 15 minutes. After 24 hours, well readings were paused, plates were removed from the incubator and compounds were added using a Tecan D300e dispenser. All wells were normalized to a final concentration of 0.5% DMSO. Following a 30 min incubation at 37° C., recombinant mouse IFNγ (R&D Systems™ 485 MI100) was diluted to 10 ng/ml in assay media and 20 μL was added to assay wells (1 ng/mL final concentration). Assay plates were placed in the xCELLigence reader and swept every 15 minutes. After 48 hours, well readings were normalized to the time point immediately preceding compound addition and the area under the growth curve (AUC) was calculated by the RTCA software and exported.

full-length human PTPN2 (TC45) (1-387) protein, sequence (P17706 other isoform, or with tags, fused parts or gaps): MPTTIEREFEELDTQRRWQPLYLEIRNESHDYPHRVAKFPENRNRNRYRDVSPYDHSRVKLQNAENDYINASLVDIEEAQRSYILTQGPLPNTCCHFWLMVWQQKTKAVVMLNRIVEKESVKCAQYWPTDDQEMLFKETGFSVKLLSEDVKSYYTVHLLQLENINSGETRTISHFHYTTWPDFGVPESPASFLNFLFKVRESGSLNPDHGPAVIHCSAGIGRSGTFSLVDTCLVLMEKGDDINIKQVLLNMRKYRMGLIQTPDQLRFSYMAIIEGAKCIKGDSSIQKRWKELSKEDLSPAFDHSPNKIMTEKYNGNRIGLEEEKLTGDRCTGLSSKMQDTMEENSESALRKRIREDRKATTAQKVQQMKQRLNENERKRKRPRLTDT

Row | pIC50 [2] | Structure (SMILES) | pIC50 [1]
1 |  | COc1cc2c(c(F)c1N1CC(=O)NS1(=O)=O)CC(NCCC(C)C)CN2C (stereo not drawn) [Example 1, 5-(5-fluoro-3-(isopentylamino)-7-methoxy-1-methyl-1,2,3,4-tetrahydroquinolin-6-yl)-1,2,5-thiadiazolidin-3-one 1,1-dioxide] | < 4.52
2 | 5.84 | CC(C)CCNC1CNc2cc(O)c(N3CC(=O)NS3(=O)=O)c(F)c2C1 (stereo not drawn) [Example 2, 5-(5-fluoro-7-hydroxy-3-(isopentylamino)-1,2,3,4-tetrahydroquinolin-6-yl)-1,2,5-thiadiazolidin-3-one 1,1-dioxide] | 7.89
3 | 5.48 | O=C1CN(c2c(O)cc3c(c2F)CCCN3)S(=O)(=O)N1 [Example 3, 5-(5-fluoro-7-hydroxy-1,2,3,4-tetrahydroquinolin-6-yl)-1,2,5-thiadiazolidin-3-one 1,1-dioxide] | 6.88
4 | 4.90 | CN1CCCc2c1cc(O)c(N1CC(=O)NS1(=O)=O)c2F [Example 4, 5-(5-fluoro-7-hydroxy-1-methyl-1,2,3,4-tetrahydroquinolin-6-yl)-1,2,5-thiadiazolidin-3-one 1,1-dioxide] | 6.06
5 |  | CCN1CCCc2c1cc(O)c(N1CC(=O)NS1(=O)=O)c2F [Example 5] | 6.06
6 |  | CC(C)CN1CCCc2c1cc(O)c(N1CC(=O)NS1(=O)=O)c2F [Example 6] | 6.02
7 |  | O=C1CN(c2c(O)cc3c(c2F)CCCN3Cc2ccccc2)S(=O)(=O)N1 [Example 7] | 6.27
8 |  | CC(C)CCN1CCCc2c1cc(O)c(N1CC(=O)NS1(=O)=O)c2F [Example 8] | 6.02
9 |  | O=C1CN(c2c(O)cc3c(c2F)CCCN3CCc2ccccc2)S(=O)(=O)N1 [Example 9] | 5.79
